Reference: patent US20250368963A1, “PROXIMAL-BIASED KIDNEY ORGANOIDS” (UNIVERSITY OF SOUTHERN CALIFORNIA, priority 2024, published 2025)
Entries after “also recorded” stand apart in the source; their conditions may differ.

How the values were obtained:
[1] = test system: E12.5 mouse kidney explants; assay: Mouse kidney organ culture with inhibitors, immunofluorescence; assay type: cell-based; conditions: mouse kidney explants cultured 48 hours with inhibitor(s)
Method: Mouse kidney explants and culture: Pregnant female Swiss Webster mice were euthanized on day E12.5 of pregnancy via CO2 following appropriate University of Southern California IACUC approved protocol. Embryos were removed and placed into PBS before dissecting out kidneys for explant culture as described below. Mouse kidney organ culture: Kidneys were dissected from E12.5 embryos and cultured for 48 hours at 37° C./5% CO2 in DMEM. Treatment condition culture media was initially supplemented with 20 μM LY294002, 2 μM DAPT (Tocris 2634), or both, before 48 hours of culture, following prior studies. After culture, mouse kidney explants were prepared for immunofluorescent analyses as described below for organoids.

[2] = test system: HNF4A-YFP control and PB organoids; assay: DAPT treatment of HNF4A-YFP organoids after Ly29 withdrawal; assay type: cell-based, human; conditions: DAPT 48 hours between days 12 and 14, control and PB conditions
Method: To determine whether HNF4A^+ cell differentiation is Notch-signaling dependent, the study treated HNF4A-YFP control and PB organoids with DAPT for 48 hours between days 12 and 14, after Ly29 withdrawal (FIGS. 16E-16F). […] In DAPT conditions, YFP− structures still developed but were HNF1B^+/JAG1^+/HNF4A− (FIG. 16E), indicating Notch signaling is required for the transition from HNF1B^+ to HNF4A^+ cells, as anticipated. PB organoids contained more HNF4A^+ structures than other conditions, and controls formed more HNF4A^+ structures than DAPT-treated conditions (pvalues <0.01) (FIG. 16G).

[3] = test system: human iPSC-derived kidney organoid nephrons; assay: Whole-mount immunofluorescence quantification of organoid nephrons; assay type: cell-based
[4] = test system: human iPSC-derived kidney organoids; assay: Comparison of PI3K inhibitors on kidney organoids; assay type: cell-based
Method: Small-molecule inhibitor screen and culture optimization: For all small molecule inhibitors used in this study, initial screens were performed on kidney organoids to determine the optimal dosage and duration of culture. […] Concentrations tested used insights from prior studies. After an ideal concentration was established, to determine optimal duration of treatment with the small molecule, separate differentiation experiments were set up with the small molecule from differentiation days 10 to 18, as well as differentiation days 12 to 18. For all optimization screens, time-course bright-field imaging was performed, and organoids were collected for whole-mount immunofluorescent analyses on differentiation day 18. […] Small-molecule inhibitor screen and culture optimization: For all small molecule inhibitors used in this study, initial screens were performed on kidney organoids to determine the optimal dosage and duration of culture. […] After an ideal concentration was established, to determine optimal duration of treatment with the small molecule, separate differentiation experiments were set up with the small molecule from differentiation days 10 to 18, as well as differentiation days 12 to 18. For all optimization screens, time-course bright-field imaging was performed, and organoids were collected for whole-mount immunofluorescent analyses on differentiation day 18.

[5] = test system: human iPSC-derived kidney organoids; assay: Bulk mRNA-sequencing of whole kidney organoids; assay type: cell-based
Method: mRNA-sequencing and data analyses: Whole organoid samples (3 independent biological replicates per timepoint, per condition for differentiation days 10 and 12, and 2 replicates for differentiation days 14 and 18) were prepared and purified according to the RNeasy Mini Kit (Qiagen, 74104). Purified RNA was sent to Novogene for sequencing. Reads were aligned to the hg38 Ensembl 105 annotation using STAR version 2.7.10a. A noise-reduction filter was applied to keep genes in which the maximum count in at least one sample was greater than or equal to 10. Partek Flow version 10.0 was then used to normalize these raw feature counts following the transcripts per million (TPM) normalization method. After filtering genes with TPM values greater than or equal to 25 in at least one sample, Z-score averages were calculated and heatmaps were clustered using pheatmap. Separately, gene set enrichment analyses were performed specifically on Day 12 replicate samples by first normalizing noise-reduced feature counts using the DESeq2 median ratio method, as recommended for gene set enrichment analyses. Partek Flow version 10.0 was then subsequently used for gene set enrichment analyses. Data are deposited with GEO accession number GSE264217 and will be made publicly available as of the date of publication.

[6] = test system: kidney organoid nephrogenic cells; assay: Single-cell RNA-sequencing of kidney organoids; assay type: cell-based, human
Method: Kidney organoid cell dissociation: Approximately 6 organoids from multiple independent wells of both untreated and treated (48 hour culture with 10 μM LY294002 between days 10 and 12) conditions were collected at differentiation days 10, 12, 14, and 18 for single-cell RNA-sequencing, from separate differentiation batches. The organoids were dissociated using Accumax (Stem Cell Technologies, 07921) at 37° C./5% CO2 for 35 minutes and pipetted twenty times with a P-1000 wide-bore pipette tip every 5 minutes. The dissociation was neutralized by using a 2× volume of AutoMACS Running Buffer (Miltenyi Biotec, 130-091-221). Cells were pelleted by centrifugation at 4° C. for 3 minutes at 300×g. After resuspending the pellet in 2 mL of AutoMACS Running Buffer, cell suspensions were strained through 40 μm strainer (VWR, 21008-949), washing the filter with an additional 1 mL AutoMACS. The flow-through was pelleted, again at 300×g in a 4° C. for 3 minutes. […]
SPLiT-seq single-cell RNA-sequencing data collection and analyses: SPLiT-seq cell processing. […] Fixed cells were then stored at −80° C. until all samples were ready to be processed with the Evercode WT v2 single-cell RNA-sequencing platform (Parse Biosciences, ECW02030). […]

[7] = test system: control and proximal-biased kidney organoids; assay: In vitro cisplatin injury assay; assay type: cell-based, human; conditions: for HNF4A/SOX9 cell state: single cisplatin-dose
Method: In vitro cisplatin injury assay: For the kidney organoid cisplatin injury assay, the study adapted an approach undertaken by two recent studies. Differentiation day 18 control and proximal-biased organoids were incubated overnight (18 hrs) at 37° C./5% CO2 in TeSR-E6 supplemented with 5 μM cisplatin (Millipore Sigma, 232120). […] Uninjured organoids were cultured with DMSO vehicle. Organoids were then processed for immunofluorescent imaging and analyses. In vitro cisplatin injury assay: For the kidney organoid cisplatin injury assay, the study adapted an approach undertaken by two recent studies. Differentiation day 18 control and proximal-biased organoids were incubated overnight (18 hours) at 37° C./5% CO2 in TeSR-E6 supplemented with 5 μM cisplatin (Millipore Sigma, 232120). Organoids recovered between days 19 and 20, before another overnight culture (18 hours) between days 20 and 21 with 5 μM cisplatin. Uninjured organoids were cultured with DMSO vehicle. Organoids were then processed for immunofluorescent imaging and analyses.

[8] = test system: day 21 proximal-biased kidney organoids; assay: Single-nucleus RNA-sequencing of cisplatin-treated PB organoids; assay type: cell-based, human; conditions: day 21, double-dose
Method: Single-nucleus preparation of kidney organoids: For single-nucleus RNA-sequencing, the same number of organoids from multiple independent wells were snap-frozen in liquid nitrogen before nuclei isolation. Briefly, organoids were transferred to a 1.7 mL low binding tube, centrifuged to form a pellet, and snap-frozen in liquid nitrogen. Flash-frozen organoids were dounced in cold Nuclei EZ Lysis Buffer (Sigma, N3408) supplemented with protease inhibitor (Roche, 05892791001). Homogenization was performed using a loose pestle and tight pestle system (Sigma, P0485) with 15 loose-dounce strokes, followed by filtration through a 200 μm strainer (pluriSelect, 43-50200). The homogenate was then subjected to an additional 5 strokes with the tight pestle and incubated on ice for 5 minutes. The suspension was filtered through a 40 μm strainer (pluriSelect, 43-50040) and centrifuged at 500×g for 5 minutes at 4° C. in a swinging-bucket centrifuge. After removing the supernatant, the nuclei pellet was resuspended in just Nuclei EZ Lysis Buffer, incubated on ice for an additional 5 minutes, and centrifuged again. […]
Single-nucleus processing and sequencing: Single-nucleus RNA-sequencing libraries were generated using the 10× Genomics Chromium Next GEM Single Cell Multiome reagents (PN 1000283) following the manufacturer's protocols (10× Genomics; CG000338 Rev E). Briefly, freshly prepared single-nuclei suspensions were counted on a Countess 3 FL cell counter and approximately 9,000 nuclei per condition went through 1 hour of transposition at 37° C. followed by GEM generation and barcoding on a Chromium X machine with immediate subsequent RT reaction. cDNA was generated from 7 preAmp cycles and 8 cDNA cycles. […]
Single-nucleus RNA-sequencing analyses: Single-nucleus RNA-sequencing data was processed using Cell Ranger (v9.0.0) and the Seurat 5.2 R package. […] Feature-barcode matrices were subsequently imported into Seurat using the Read10× function. […]

Which results are given for `C[C@H](NC(=O)Cc1cc(F)cc(F)c1)C(=O)N[C@H](C(=O)OC(C)(C)C)c1ccccc1` [DAPT]?
Hnf4a expression [1]: blocked Hnf4a expression; HNF4A-YFP [2]: reduced HNF4A-YFP; nephron elongation and HNF1B/HES1 upregulation ([3]; day 12, cultured with DAPT, either with or without Ly29): did not elongate or further upregulate HNF1B; also recorded: did not upregulate HNF1B or HES1

What does the source list for `CS(=O)(=O)N1CCN(Cc2cc3nc(-c4cccc5[nH]ncc45)nc(N4CCOCC4)c3s2)CC1` [GDC-0941]?
efficacy relative to LY294002 ([4]; FIG. 11): slightly less efficacy than LY294002; proximal-biasing phenotype of PI3K inhibition ([4]; second, structurally different PI3K inhibitor): confirmed

With `O=c1cc(N2CCOCC2)oc2c(-c3ccccc3)cccc12` [Ly29, LY294002] as the compound, how does the HNF1B expression upregulated ([5]; RNA-sequencing, day 12, 48 hr treatment, vs control) read?
Its HNF1B expression upregulated is 2.88 fold.

What about the “increase in JAG1 expression” value ([5]; RNA-sequencing, day 12, treated days 10-12, vs control) of the same compound?
The value was 1.78 fold.

What about the “increase in HNF4A transcript levels” value ([5]; bulk RNA-sequencing, day 18, vs controls) of the same compound?
Its value is 2.31 fold.

What about the “increase in HNF4G transcript levels” value ([5]; bulk RNA-sequencing, vs controls) of the same compound?
The value was 1.72 fold.

What about the “HNF4A expression at day 12” value ([5]; day 12, not detected) of the same compound?
The value was under 1.7 TPM.

What about the “HNF1B+ nephron size increase” value ([3]; day 12 organoids, vs controls) of the same compound?
The value was 1.64 fold.

And the “JAG1+ nephron size increase” value ([3]; day 12 organoids, vs controls)?
The value was 2.36 fold.

And the “abundance of HNF1B within each nephron, increase” value ([3]; day 12 organoids, vs controls)?
The value was 1.22 fold.

And the “sum total area of HNF4A+ organoid nephron segments, increase” value ([3]; day 18, n=3 organoids, vs controls)?
Its value is 2.83 fold.

And the “average size of individual HNF4A+ segments, increase” value ([3]; day 18 organoids, vs controls)?
Its value is 1.30 fold.

And the “total number of HNF4A+ segments per organoid, increase” value ([3]; day 18 organoids, vs controls)?
The value was 4.02 fold.

What about the “share of all HNF4A+ cells that originated from the PB condition” value ([6]; days 12, 14, 18 integrated) of the same compound?
Its value is 72.7%.

What about the “share of all HNF4A+ proximal tubule precursors that originated from the PB condition” value ([6]; scaled for total cell numbers) of the same compound?
Its value is 70.8%.

How did the “tubular integrity and apicobasal polarity” value ([7]; ATP1A1 and LAMB1 distribution, injured nephrons) turn out when `N.N.[Cl][Pt][Cl]` [cisplatin] was run?
Its value is “loss of tubular integrity and apicobasal polarity”.

And the “SOX9 response to injury” value ([7]; PB kidney organoid nephrons, double dose)?
The value was “activated SOX9”.

And the “correlation of HNF4A protein levels with γH2AX (r)” value ([7]; cisplatin-injured PB nephrons, day 21)?
Its value is −0.67.

What about the “sensitivity of PB nephrons” value ([7]; day 18, 5 μM, 72 hrs) of the same compound?
Its value is “sensitive”.

And the “uninterrupted tubular lumens longer in uninjured samples” value ([7]; day 21 PB organoids, uninjured vs injured)?
The value was 2.82 fold.

What about the “KIM1/HAVCR1 protein abundance higher in PB organoid nephrons” value ([7]; day 21 following injury, PB vs control organoid nephrons) of the same compound?
The value was 1.56 fold.

And the HNF4A/SOX9 cell state ([7]; 1 day post-injury)?
The HNF4A/SOX9 cell state was “HNF4AHIGH/SOX9LOW”.

And the HNF4A/SOX9 cell state ([7]; 3 days post-injury)?
Its HNF4A/SOX9 cell state is “HNF4AMED/SOX9MED”.

And the HNF4A/SOX9 cell state ([7]; 6 days post-injury)?
Its HNF4A/SOX9 cell state is “HNF4ALOW/SOX9HIGH”.

What about the “KIM1/HAVCR1 in HNF4A+ PB nephron cells” value ([7]; two staggered doses 5 μM, assayed 3 days after initial injury, PB organoids) of the same compound?
The value was “strong detection”.

What about the “KIM1/HAVCR1 in injured control organoids” value ([7]; two staggered doses 5 μM, control organoids) of the same compound?
The value was “sparse”.

And the “HAVCR1 and SOX9 detection in injured cells” value ([8]; vs uninjured)?
Its value is “higher detection”.

And the KRT17 detection ([8]; proximal subset)?
The KRT17 detection was “exclusively detected in the injured population”.

What about the “cells positive for injury markers that originated from the injured population” value ([8]; proximal subset) of the same compound?
The value was “approximately 75%”.
